# Test results as given in PMC6449356 (Scientific Reports, 2019).
# Like-named read-outs stand apart in the source and are kept apart here.
# Assays:
# [1] = tested on: cell-free extract from E. coli ATCC 25922 (coupled transcription/translation); test: In vitro transcription/translation (IVTT) assay, E. coli extract; type: biochemical, Escherichia coli; details: E. coli ATCC 25922 extract; average value and range of three independent experiments
# [2] = tested on: cell-free extract from S. aureus ATCC 29213 (coupled transcription/translation); test: In vitro transcription/translation (IVTT) assay, S. aureus wt extract; type: biochemical, Staphylococcus aureus; details: S. aureus ATCC 29213 extract, average value and range of three independent experiments
# Protocol: (§1) The cell-free protein synthesis reactions were carried out based on a procedure published for E. coli[37] and adapted for S. aureus as described previously for C. difficile. To improve expression from extracts derived from S. aureus, the firefly luciferase reporter gene was resynthesized with codons optimized for S. aureus at GeneArt AG (Regensburg, Germany) and cloned into plasmid pSP-luc_NF Fusion (Promega), replacing the existing luciferase gene. In addition, a 180-bp-long BglII-HindIII promoter fragment of gene abrB310 derived from Clostridium acetobutylicum was synthesized and cloned upstream of the codon-optimized luciferase gene for efficient translation, leading to plasmid pSPAbrlac-luc_Saur. S. aureus bacterial extracts were prepared according to a simplified E. coli procedure using a FastPrep®-24 instrument from Lucerna Chem AG (Cat No. 6004-500) and lysing matrix B (Lucerna Chem, Cat No. 116911100; silica spheres < 100 µm).
# (§2) Test compounds diluted in 8% DMSO were added to reaction buffer containing bacterial extract and SP6 RNA polymerase, yielding final concentrations of 100, 20, 4, 0.8, 0.16, 0.04, 0.008, 0.0016, and 0 µM. Samples were mixed and pre-incubated for 10 min at RT before 100 ng plasmid pBestluc (E. coli) or 500 ng plasmid pSPAbrlac-luc_Saur (S. aureus) was added. After mixing, the plate was incubated at RT for 90 min. The luminescence was immediately measured after addition of the luciferase substrate Bright Glo (Promega, E2610) using a Tecan SpectralFluor Plus Reader (GeniosPro) instrument (parameters: integration time 1000 ms; intensity normal). Fifty percent inhibitory concentrations (IC50s) were calculated from the data.
# [3] = tested on: cell-free extract from S. aureus S1 (LZD^R, homozygous G2576U in 23S rRNA); test: In vitro transcription/translation (IVTT) assay, S. aureus S1 LZD-resistant extract; type: biochemical, Staphylococcus aureus; details: average value and range of three independent experiments
# Protocol: as §1, with “S. aureus bacterial extracts were prepared according to a simplified E. coli procedure using a FastPrep®-24 instrument from Lucerna Chem AG (Cat No. 6004-500) and lysing matrix B (Lucerna Chem, Cat No. 116911100; silica spheres < 100 µm).” left out
# as §2, with “Samples were mixed and pre-incubated for 10 min at RT before 100 ng plasmid pBestluc (E. coli) or 500 ng plasmid pSPAbrlac-luc_Saur (S. aureus) was added. After mixing, the plate was incubated at RT for 90 min.” left out
# [4] = tested on: E. coli ATCC 25922; test: MIC, micro dilution (CLSI); type: cell-based; details: Escherichia coli, ATCC25922
# Protocol: (§3) The MICs were determined using the micro dilution method recommended by the Clinical and Laboratory Standards Institute (CLSI).
# [5] = tested on: E. coli MG1655 tolC::kan; test: MIC, micro dilution (CLSI); type: cell-based; details: Escherichia coli
# Protocol: as §3
# [6] = tested on: S. aureus ATCC 29213; test: MIC, micro dilution (CLSI); type: cell-based; details: Staphylococcus aureus, ATCC29213, median value of at least 3 determinations
# Protocol: as §3
# [7] = tested on: S. aureus S1 LZD^R; test: MIC, micro dilution (CLSI); type: cell-based; details: Staphylococcus aureus
# Protocol: as §3
# [8] = tested on: S. aureus linezolid-nonsusceptible G2576U mutants (14); test: MIC50/MIC90, broth microdilution (CLSI), strain panel; type: cell-based, Staphylococcus aureus; details: linezolid-nonsusceptible S. aureus G2576U mutants (14 strains)
# Source text: (§4) resistance mechanisms using broth microdilution methods (CLSI).
# (§5) Cadazolid Lin e zolid Vancom yc in
# (§6) lin e zolid-nonsusceptible (26**)
# (§7) * The 12 tested wild-type control strains include methicillin [oxacillin]-resistant [MRSA]
# (§8) strains [41.7%] from JMI Laboratories (North Liberty, Iowa).
# (§9) ** The 26 clinical strains tested included 12 cfr-positive and 14 23S rRNA mutants [G2576U].
# [9] = tested on: S. aureus linezolid-nonsusceptible strains carrying cfr (12); test: as above; type: cell-based, Staphylococcus aureus; details: linezolid-nonsusceptible S. aureus carrying cfr (12 strains)
# Source text: as §4, §5, §6, §7, §8, §9
# [10] = tested on: S. aureus wild-type strains (12); test: as above; type: cell-based, Staphylococcus aureus; details: wild-type S. aureus (12 strains)
# Source text: as §4, §5, §6, §7, §8, §9
# [11] = tested on: cell-free extracts from E. coli and from S. aureus linezolid-susceptible and -resistant strains; test: In vitro translation in cell-free extracts, summary over the three extracts; type: biochemical; details: range over extracts from E. coli and S. aureus linezolid-susceptible and -resistant strains
# Protocol: as §1, with “S. aureus bacterial extracts were prepared according to a simplified E. coli procedure using a FastPrep®-24 instrument from Lucerna Chem AG (Cat No. 6004-500) and lysing matrix B (Lucerna Chem, Cat No. 116911100; silica spheres < 100 µm).” left out
# as §2, with “Samples were mixed and pre-incubated for 10 min at RT before 100 ng plasmid pBestluc (E. coli) or 500 ng plasmid pSPAbrlac-luc_Saur (S. aureus) was added. After mixing, the plate was incubated at RT for 90 min.” left out
Compound,IC50 [1] [nM],IC50 [2] [nM],IC50 [3] [nM],"MIC ([4]; E. coli ATCC 25922, median value of at least 3 determinations, read-out: MIC) [µg/mL]",MIC [5] [µg/mL],MIC [6] [µg/mL],MIC [7] [µg/mL],MIC50 [8],MIC90 [8],MIC50 [9],MIC90 [9],MIC50 [10],MIC90 [10],IC50 [11] [nM],IC50 ([2]; listed as LZD) [nM],MIC [4] [µg/mL]
O=C(O)c1cn(C2CC2)c2cc(N3CCC(O)(COc4ccc(N5C[C@H](CO)OC5=O)cc4F)CC3)c(F)cc2c1=O [Cadazolid],240,320,330,8,≤ 0.063,0.5,1,0.5,0.5,0.25,0.5,0.25,0.25,240 to 330,–,–
CC(=O)NC[C@H]1CN(c2ccc(N3CCOCC3)c(F)c2)C(=O)O1 [Linezolid],4030,2610,7030,–,8,2,32,8,16,8,8,1,1,–,2600,> 32
CN[C@H](CC(C)C)C(=O)N[C@H]1C(=O)N[C@@H](CC(N)=O)C(=O)N[C@H]2C(=O)N[C@H]3C(=O)N[C@H](C(=O)N[C@H](C(=O)O)c4cc(O)cc(O)c4-c4cc3ccc4O)[C@H](O)c3ccc(c(Cl)c3)Oc3cc2cc(c3O[C@@H]2O[C@H](CO)[C@@H](O)[C@H](O)[C@H]2O[C@H]2C[C@](C)(N)[C@H](O)[C@H](C)O2)Oc2ccc(cc2Cl)[C@H]1O [Vancomycin],–,–,–,–,–,–,–,1,1,0.5,1,1,1,–,–,–
